The assay concerns C57bl/6J Mice. The assay is described as follows: GPR120 C57bl6 Mouse IPGTT. The class given is in vivo. Particulars: 30.0 mg/kg, dosed 30 minutes prior to glucose (IP 1.5 g/kg). As to the method:
Male, C57bl/6J Mice were ordered in at 8 weeks of age from Jackson Labs. Individual mice weighed anywhere in the range of 25-30 grams on study day. The mice were fasted, with removal of food occurring at 7 am on the morning of the study. Animals were moved into the room at 10:00 am, to give them time to acclimate. Glucose (insulin syringes) was drawn up either the night before or the morning of the study. Glucose was dosed (IP) at 1.5 g/kg at 7.5 ml/kg (20% glucose straight TEKNOVA, 250 ml sterile bottle w/ catalogue number G0525). Test compounds were kept spinning and were only drawn into the syringes prior to study commencement. Animals were bled via tail snip to determine basal glucose levels prior to dosing of treatments. An Ascensia BREEZE Blood Glucose Monitoring System by Bayer (using unique 10-test disks) was used for determining glucose levels. The bleeds started at approximately 12:45 pm and dosing started, at 1-minute intervals, immediately after. All groups were dosed 30 minutes prior to glucose administration at a dose volume of 10 ml/kg (the dose volume was calculated separately for each individual animal). Thirty minutes after the first dose animals were bled again for a second baseline, or T=0, and immediately dosed with glucose via an i.p. injection. The exact dose volume for glucose was also calculated separately for each individual animal. […]

Consider `Cc1c(CCC(=O)O)ccc(OCc2cccn2-c2ccc(Cl)cc2)c1C` [Compound 1, 3-(4-{[1-(4-Chlorophenyl)-1H-pyrrol-2-yl]methoxy}-2,3-dimethylphenyl)propanoic acid], for which the “GPR120 C57bl6 Mouse IPGTT Results” value is reported as “not different”.

Source of the values: US9045454B2, “Bicyclic pyrrole derivatives useful as agonists of GPR120” (Janssen Pharmaceutica NV, priority 2013, dated 2015).
